The results in this text go back to US8476266B2, “Phenylacetic acid compound” (Ono Pharmaceutical Co., Ltd., priority 2007, dated 2013).

Some results are limits rather than exact numbers.

One assay addresses T1, DP receptor (Homo sapiens, UniProt Q13258).
T1 construct: Blood was collected from the cubital vein of a healthy adult; endogenous in cells; host or cells: human platelets (platelet-rich plasma of a healthy adult donor)
T1 sequence (Q13258 1-359): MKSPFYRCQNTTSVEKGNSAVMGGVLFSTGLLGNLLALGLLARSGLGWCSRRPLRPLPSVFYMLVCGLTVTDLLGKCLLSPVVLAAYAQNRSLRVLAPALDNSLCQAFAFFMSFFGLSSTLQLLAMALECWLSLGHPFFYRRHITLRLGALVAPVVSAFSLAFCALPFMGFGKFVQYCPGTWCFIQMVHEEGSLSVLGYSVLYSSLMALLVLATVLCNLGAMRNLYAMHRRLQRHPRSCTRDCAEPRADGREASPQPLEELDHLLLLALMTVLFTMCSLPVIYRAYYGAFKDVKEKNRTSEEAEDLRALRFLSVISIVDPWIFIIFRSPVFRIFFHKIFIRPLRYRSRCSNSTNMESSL
Kind of assay: Measurement of DP receptor antagonistic activity using human platelet-rich plasma (PRP); inhibition of PGD2-stimulated cAMP production. As to conditions: for IC50: human PRP, 3 μmol/L PGD2 stimulation; for binding activity against the DP receptor compared with the non-substituted compound (Comparative compound 1): in words. The class given is cell-based. The method, then:
The collected blood was subjected to centrifugal separation at 100 G, at room temperature for 15 minutes to obtain PRP in the upper layer. EDTA was added to the obtained PRP so that the final concentration thereof to be about 10 mmol/L. The PRP was subjected to centrifugal separation at 1500 G, at room temperature for 15 minutes to obtain supernatant platelet poor plasma (PPP). After the obtained platelet pellets were suspended, the suspension was diluted with PPP so that the platelet density to be adjusted to 5.0×10^5/μL. To the obtained platelet suspension, 3-isobutyl-1-methylxanthine and prostanoid EP3 receptor antagonist were added so that the final concentrations thereof to be 8 mmol/L and 1 μmol/L, respectively.
297 μL of the prepared PRP was dispensed to each test tube, followed by subjecting to incubation at 37° C. for 5 minutes. After adding 1.5 μL of DMSO or a variety of concentrations of the compound of the present invention, 10 minutes of incubation was carried out at 37° C. 1.5 μL, of DMSO or PGD2 (final concentration: 3 μmol/L) was added thereto to initiate the reaction. After 15 minutes of incubation was carried out at 37° C., […] of ice-cooled 10% trichloroacetic acid (TCA) was added thereto to terminate the reaction. The TCA-treated sample was subjected to centrifugal separation at 15,000 G for 3 minutes at 4° C. The concentration of thus obtained supernatant cAMP was measured by enzyme immunoassay using cAMP EIA system (Amersham plc). 300 μL of the supernatant obtained above was mixed with 600 μL, of a solution of 0.5 mol/L tri-n-octylamine in chloroform. After extracting TCA in the organic layer, the cAMP content in the water layer sample was measured according to the method described in cAMP assay kit.

A further assay addresses T2, Human CYP3A4 (Homo sapiens, UniProt P08684).
T2 construct: purchased BD Gentest
As to the kind of experiment: Measurement of drug-metabolizing enzyme inhibitory activity (human CYP3A4 inhibitory effect), CYP3A4 expression system microsome, 7-BQ substrate. The class given is in vitro ADME. The following applies: 7-benzyloxyquinoline substrate, 37° C., 30 minutes. The method, then: A solution of the test compound having a concentration five hundred times more than the evaluation concentration in ethanol, or ethanol was 125-fold diluted by water. 50 μL of the test compound solution or the ethanol solution (control) was added with CYP3A4 substrate (7-benzyloxyquinoline (7-BQ), 40 μmol/L), magnesium chloride solution (5 mmol/L), and 100 μL, of 200 mM potassium phosphate buffer solution (pH 7.4) containing CYP3A4 expression system microsome (BD Gentest, 0.25 mg/mL), and preincubated at 37° C. for 10 minutes, then added with 50 μL, of reduced nicotinamide adenine dinucleotide phosphate (NADPH, final concentration 1 mmol/L) and incubated at 37° C. for 30 minutes. Immediately after the addition of NADPH, and after incubation, the fluorescence intensity was measured for 7-hydroxyquinoline which is a metabolite of the substrate (excitation wavelength 409 nm, emission wavelength 530 nm). The inhibition ratio against the control was calculated by the equation below. Inhibition rate(%)=[1-{(fluorescence intensity of the test compound after incubation−fluorescence intensity of the test compound immediately after addition of NADPH)/(fluorescence intensity of control after incubation−fluorescence intensity of control immediately after the addition of NADPH)}]×100.
IC50 was calculated from the equation below. IC50(μmol/L)=(50−(D×A−C×B)/(D−C))/((B−A)/(D−C)) • A: Highest inhibition rate (%) which is less than 50%. • B: Lowest inhibition rate (%) which is more than 50%. • C: Concentration (μmol/L) of the test compound when the inhibition rate is A. • D: Concentration (μmol/L) of the test compound when the inhibition rate is B.

For assay [1], the target named is T3, prostanoid receptor subtype (human EP2) (Homo sapiens, UniProt P43116).
T3 construct: expressed in transfected cells; host or cells: CHO cells
T3 sequence (P43116 whole entry): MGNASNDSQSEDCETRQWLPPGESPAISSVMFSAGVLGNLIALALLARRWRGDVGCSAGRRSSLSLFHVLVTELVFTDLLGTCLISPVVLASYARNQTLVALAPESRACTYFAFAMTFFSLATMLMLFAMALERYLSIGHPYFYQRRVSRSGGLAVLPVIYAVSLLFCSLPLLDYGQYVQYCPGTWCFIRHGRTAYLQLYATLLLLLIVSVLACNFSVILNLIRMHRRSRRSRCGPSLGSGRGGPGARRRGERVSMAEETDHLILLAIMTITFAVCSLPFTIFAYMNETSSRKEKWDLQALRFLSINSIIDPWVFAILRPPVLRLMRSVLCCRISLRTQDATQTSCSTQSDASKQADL
As to the kind of experiment: Receptor binding experiment using prostanoid receptor subtype expressing cell (3H-PGE2, CHO cell membrane). As to conditions: 3H-PGE2 2.5 nM, read-out: Ki, EP2 receptor binding (3H-PGE2 binding inhibition). As to the method:
According to the method of Sugimoto et. al. (J. Biol. Chem. 267, 6463-6466 (1992)), CHO cells in which prostanoid receptor subtype (human EP2) was expressed were prepared to obtain membrane preparation.
A reaction solution (200 μl) containing membrane fraction preparation (0.5 mg/ml) and ^3H-PGE2 was incubated at room temperature for one hour. The reaction was terminated by ice-cooled buffer (3 ml), bound ^3H-PGE2 was trapped on a glass filter (GF/B) by suction filtration at reduced pressure, and bound radioactivity was measured by a liquid scintillator.
The Kd value was calculated from Scatchard plots [Ann. N.Y. Acad. Sci. 51, 660 (1949)]. Nonspecific binding was determined as a bond in the presence of excessive amount (10 μM) of unlabeled PGE2. The measurement of ^3H-PGE2 binding inhibitory effect by the compound of the present invention was carried out by adding ^3H-PGE2 (2.5 nM) and the compound of the present invention at a variety of concentrations. Note that all reactions used the following buffer.
Buffer: potassium phosphate (10 mM, pH 6.0), EDTA (1 mM), MgCl2 (10 mM), NaCl (0.1 M).
Dissociation constant (Ki (μM)) of each compound was calculated from the following equation. Ki=IC50/(1+([C]/Kd) • IC50: Concentration of the compound of the present invention required for 50%-inhibition of [3H]PGE2 specific bond • C: Concentration of [3H]PGE2 • Kd: Dissociation constant of [3H]PGE2

T2 sequence (P08684 whole entry): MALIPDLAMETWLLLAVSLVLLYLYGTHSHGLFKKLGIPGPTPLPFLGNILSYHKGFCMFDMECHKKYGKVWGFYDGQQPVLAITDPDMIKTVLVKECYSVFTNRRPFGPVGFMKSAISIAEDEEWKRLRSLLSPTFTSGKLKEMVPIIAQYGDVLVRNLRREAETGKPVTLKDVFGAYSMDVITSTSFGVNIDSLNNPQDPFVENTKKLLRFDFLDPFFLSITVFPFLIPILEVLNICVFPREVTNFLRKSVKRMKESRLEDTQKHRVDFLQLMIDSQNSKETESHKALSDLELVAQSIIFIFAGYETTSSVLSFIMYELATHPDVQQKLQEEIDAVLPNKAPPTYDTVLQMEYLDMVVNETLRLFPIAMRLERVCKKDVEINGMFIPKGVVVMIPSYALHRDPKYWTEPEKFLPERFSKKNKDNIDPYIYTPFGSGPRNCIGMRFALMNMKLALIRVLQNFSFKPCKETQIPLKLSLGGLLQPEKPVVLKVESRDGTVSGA

Take `Cc1cc(OC[C@@H]2CN(C)c3ccccc3O2)cc(C)c1C(=O)Nc1cc(CC(=O)O)ccc1C(F)(F)F` [Example 24, (3-((2,6-dimethyl-4-(((2S)-4-methyl-3,4-dihydro-2H-1,4-benzoxazin-2-yl)methoxy)benzoyl)amino)-4-(trifluoromethyl)phenyl)acetic acid]: the figures for the IC50 at DP receptor and at Human CYP3A4 were 8.9 nM and 8400 nM, respectively.

In the case of `Cc1cc(OC[C@@H]2CN(C)c3ccccc3O2)cc(C)c1C(=O)Nc1cc(CC(=O)O)ccc1Cl` [Comparative compound 3, (4-chloro-3-((2,6-dimethyl-4-(((2S)-4-methyl-3,4-dihydro-2H-1,4-benzoxazin-2-yl)methoxy)benzoyl)amino)phenyl)acetic acid], the concentration for half-maximal inhibition (IC50) was determined as 4 nM at DP receptor and 19700 nM at Human CYP3A4. Also, in assay [1], the Ki turned out to be 16.8 nM.

On to `Cc1cc(OC[C@@H]2CN(C)c3ccccc3O2)cc(C)c1C(=O)Nc1cccc(CC(=O)O)c1` [Comparative compound 1, (3-((2,6-dimethyl-4-(((2S)-4-methyl-3,4-dihydro-2H-1,4-benzoxazin-2-yl)methoxy)benzoyl)amino)phenyl)acetic acid], for which the IC50 is 21 nM on DP receptor and not below 30000 nM against Human CYP3A4. Besides, the Ki in assay [1] came out at 93.6 nM.

For `CCc1cc(OC[C@@H]2CN(C)c3ccccc3O2)cc(C)c1C(=O)Nc1cc(C2(C(=O)O)CC2)ccc1C(F)(F)F` [Example 21, 1-(3-((2-ethyl-6-methyl-4-(((2S)-4-methyl-3,4-dihydro-2H-1,4-benzoxazin-2-yl)methoxy)benzoyl)amino)-4-(trifluoromethyl)phenyl)cyclopropanecarboxylic acid], the figures for the IC50 at DP receptor and at Human CYP3A4 were 2.9 nM and not below 30000 nM, respectively.

In the case of `Cc1cc(OC[C@@H]2CN(C)c3ccccc3O2)cc(C)c1C(=O)Nc1cc(C2(C(=O)O)CC2)ccc1C(F)(F)F` [Example 12, 1-(3-((2,6-dimethyl-4-(((2S)-4-methyl-3,4-dihydro-2H-1,4-benzoxazin-2-yl)methoxy)benzoyl)amino)-4-(trifluoromethyl)phenyl)cyclopropanecarboxylic acid], the IC50 against DP receptor is 7.1 nM; against Human CYP3A4, not below 30000 nM. The Ki in assay [1] worked out at 142 nM.

Turning to `Cc1ccc(CC(=O)O)cc1NC(=O)c1c(C)cc(OC[C@@H]2CN(C)c3ccccc3O2)cc1C` [Comparative compound 2, (3-((2,6-dimethyl-4-(((2S)-4-methyl-3,4-dihydro-2H-1,4-benzoxazin-2-yl)methoxy)benzoyl)amino)-4-methylphenyl)acetic acid], the “binding activity against the DP receptor compared with the non-substituted compound (Comparative compound 1)” value at DP receptor is listed as “more increased binding activity”. Further, the IC50 against Human CYP3A4 was less than 3000 nM.

On to `Cc1cc(OC[C@@H]2CN(C)c3ccccc3O2)cc(C)c1C(=O)Nc1cc(C2(C(=O)O)CC2)ccc1Cl` [Comparative compound 4, 1-(4-chloro-3-((2,6-dimethyl-4-(((2S)-4-methyl-3,4-dihydro-2H-1,4-benzoxazin-2-yl)methoxy)benzoyl)amino)phenyl)cyclopropanecarboxylic acid], for which, at DP receptor, the IC50 is 6.5 nM and the “binding activity against the DP receptor compared with the non-substituted compound (Comparative compound 1)” value is reported as “more increased binding activity”. In addition, the IC50 against Human CYP3A4 was not below 30000 nM. For the same compound, in assay [1], the Ki was determined as 1.8 nM.
